From patent US20240246946A1, “MODULATORS OF TREX1” (Constellation Pharmaceuticals, Inc., priority 2021, published 2024)
Where two headings read alike, the source gives them in different places.

Tests used:
[1] = biological target: T1, full length mouse TREX1 (Mus musculus, UniProt Q91XB0); test: mTREX1 Biochemical Assay (fluorescence, dsDNA substrate degradation)
T1 construct: N-terminally His-Tev tagged full length mouse TREX1; made in house; host or cells: E. coli
T1 sequence (Q91XB0 1-314): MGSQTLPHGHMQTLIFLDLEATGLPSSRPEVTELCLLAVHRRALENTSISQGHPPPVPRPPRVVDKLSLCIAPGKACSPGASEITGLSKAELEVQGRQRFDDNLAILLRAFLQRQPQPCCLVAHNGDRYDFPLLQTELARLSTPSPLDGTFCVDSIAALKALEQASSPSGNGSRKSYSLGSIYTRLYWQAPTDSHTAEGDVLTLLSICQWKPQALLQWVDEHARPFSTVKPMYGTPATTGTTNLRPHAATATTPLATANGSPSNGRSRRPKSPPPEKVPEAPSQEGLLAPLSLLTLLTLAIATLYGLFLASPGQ
Summary of the method: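 Reaction run 18 h at 25° C. with 60 nM TEX615/quencher-labelled dsDNA and 6 pM mouse TREX1 in Tris buffer (pH 7.4, 5 mM MgCl2, 1.0% DMSO), enzyme having sat 4 h with compound across 10 concentrations. EDTA quench; substrate degradation measured as fluorescence increase.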

[2] = biological target: T2, full length human TREX1 (Homo sapiens, UniProt Q9NSU2); test: hTREX1 Biochemical Assay (fluorescence, dsDNA substrate degradation)
T2 construct: N-terminally His-Tev tagged full length human TREX1; made in house; host or cells: E. coli
T2 sequence (Q9NSU2 1-314): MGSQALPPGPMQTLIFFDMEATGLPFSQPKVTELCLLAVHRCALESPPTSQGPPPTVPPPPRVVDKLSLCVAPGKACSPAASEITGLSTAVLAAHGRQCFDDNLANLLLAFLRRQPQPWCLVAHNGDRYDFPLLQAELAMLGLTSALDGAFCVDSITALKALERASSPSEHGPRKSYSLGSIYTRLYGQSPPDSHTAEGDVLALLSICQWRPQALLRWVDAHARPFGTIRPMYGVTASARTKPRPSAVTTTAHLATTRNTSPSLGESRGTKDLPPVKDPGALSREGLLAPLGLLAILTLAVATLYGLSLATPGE
Summary of the method: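 Cleavage of 60 nM TEX615/quencher-labelled dsDNA in pH 7.4 Tris buffer with 5 mM MgCl2, 1.0% DMSO, run 18 hours at 25° C, EDTA-quenched; fluorescence read-out.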

[3] = biochemical, read-out: mTREX1 IC50
[4] = biochemical, read-out: hTREX1 IC50

| IC50 [1, 3] [nM] | IC50 [2, 4] [nM] | Compound | IC50 ([1]; mTREX1 IC50, biochemical) [nM] | IC50 ([2]; hTREX1 IC50, biochemical) [nM] |
| --- | --- | --- | --- | --- |
| > 10 | > 10 | CC(c1nc(C(=O)Nc2cnoc2)c(O)c(=O)n1C)C(c1cnn(CCN2CCN(C(=O)OC(C)(C)C)CC2)c1)c1ccccc1C#N (single isomer, unassigned) [Example 21 D1E2] | – | – |
| > 10 | > 10 | Cc1cc(C(c2cc(F)ccc2C#N)C(C)c2nc(C(=O)Nc3cnoc3)c(O)c(=O)n2C)n(C)n1 (single isomer, unassigned) [Example 111 D1E1] | – | – |
| > 10 | > 10 | CC(c1nc(C(=O)Nc2cnoc2)c(O)c(=O)n1C)C(c1cnn(C)c1)c1cc(F)c(F)cc1C#N (single isomer, unassigned) [Example 25 D2E2] | – | – |
| > 10 | > 10 | CC(=O)N(C)c1nn(C)cc1C(c1ccccc1C#N)C(C)c1nc(C(=O)Nc2cnoc2)c(O)c(=O)n1C (single isomer, unassigned) [Example 153 D1E1] | – | – |
| > 10 | > 10 | CC(c1nc(C(=O)Nc2cnoc2)c(O)c(=O)n1C)C(c1cnn(C)c1)c1cc(F)ccc1Cl (single isomer, unassigned) [Example 61 D1E2] | – | – |
| > 10 | > 10 | Cc1cc(C(c2cc(F)ccc2Cl)C(C)c2nc(C(=O)Nc3cnoc3)c(O)c(=O)n2C)n(C)n1 (single isomer, unassigned) [Example 113 D2E2] | – | – |
| > 10 | 1 to 10 | CC(c1nc(C(=O)Nc2cnoc2)c(O)c(=O)n1C)C(c1cnccn1)c1ccccc1C#N (single isomer, unassigned) [Example 66 D2E1] | – | – |
| > 10 | > 10 | Cc1cnc(C)c(C(c2ccccc2Cl)C(C)c2nc(C(=O)Nc3cnoc3)c(O)c(=O)n2C)n1 (single isomer, unassigned) [Example 120 D2E1] | – | – |
| > 10 | > 10 | Cc1nn(C)c(C)c1C(c1ccccc1C#N)C(C)c1nc(C(=O)Nc2cnoc2)c(O)c(=O)n1C (single isomer, unassigned) [Example 78 D2E2] | – | – |
| > 10 | > 10 | CCn1cc(C(c2cc(F)c(F)cc2Cl)C(C)c2nc(C(=O)Nc3cnoc3)c(O)c(=O)n2C)cn1 (single isomer, unassigned) [Example 72 D1E2] | – | – |
| > 10 | > 10 | CCn1cc(C(c2ccccc2C#N)C(C)c2nc(C(=O)Nc3cnoc3)c(O)c(=O)n2C)c(C)n1 (single isomer, unassigned) [Example 70 D2E2] | – | – |
| > 10 | > 10 | CC(c1nc(C(=O)Nc2cnoc2)c(O)c(=O)n1C)C(c1cnn(CCN2CCOCC2)c1)c1ccccc1C#N (single isomer, unassigned) [Example 20 D2E2] | – | – |
| > 10 | > 10 | CC(c1nc(C(=O)Nc2cnoc2)c(O)c(=O)n1C)C(c1cnn(C)c1)c1cc(C(F)(F)F)ccc1C#N (single isomer, unassigned) [Example 29 D1E2] | – | – |
| > 10 | > 10 | CC(c1nc(C(=O)Nc2cnoc2)c(O)c(=O)n1C)C(c1cnn(C)c1)c1ccc(F)cc1C#N (single isomer, unassigned) [Example 15 D2E2] | – | – |
| > 10 | > 10 | CC(c1nc(C(=O)Nc2cnoc2)c(O)c(=O)n1C)C(c1cnn(CCN2CCNCC2)c1)c1ccccc1C#N (single isomer, unassigned) [Example 31 D1E2] | – | – |
| > 10 | > 10 | CC(c1nc(C(=O)Nc2cnoc2)c(O)c(=O)n1C)C(c1cnn(CC(C)(C)O)c1)c1ccccc1C#N (single isomer, unassigned) [Example 36 D2E2] | – | – |
| > 10 | > 10 | CC(c1nc(C(=O)Nc2cnoc2)c(O)c(=O)n1C)C(c1cn(C)cn1)c1ccccc1C#N (single isomer, unassigned) [Example 39 D1E2] | – | – |
| > 10 | > 10 | Cc1cnc(C(c2cc(F)ccc2C#N)C(C)c2nc(C(=O)Nc3cnoc3)c(O)c(=O)n2C)cn1 (single isomer, unassigned) [Example 115 D2E1] | – | – |
| > 10 | > 10 | COCCn1cc(C(c2cc(F)ccc2C#N)C(C)c2nc(C(=O)Nc3cnoc3)c(O)c(=O)n2C)cn1 (single isomer, unassigned) [Example 18 D2E1] | – | – |
| > 10 | > 10 | CC(c1nc(C(=O)Nc2cnoc2)c(O)c(=O)n1C)C(c1cnn(CCCN(C)C)c1)c1ccccc1C#N (single isomer, unassigned) [Example 34 D2E2] | – | – |

| IC50 [1, 3] [nM] | IC50 [2, 4] [nM] | Compound | IC50 ([1]; mTREX1 IC50, biochemical) [nM] | IC50 ([2]; hTREX1 IC50, biochemical) [nM] |
| --- | --- | --- | --- | --- |
| > 10 | > 10 | CC(c1nc(C(=O)Nc2cnoc2)c(O)c(=O)n1C)C(c1ccccc1C#N)c1nnnn1C (single isomer, unassigned) [Example 131 D2E2] | – | – |
| > 10 | > 10 | COCCn1cc(C(c2cc(F)c(F)cc2Cl)C(C)c2nc(C(=O)Nc3cnoc3)c(O)c(=O)n2C)cn1 (single isomer, unassigned) [Example 73 D2E1] | – | – |
| > 10 | > 10 | CCn1ncc(C(c2ccccc2C#N)C(C)c2nc(C(=O)Nc3cnoc3)c(O)c(=O)n2C)c1C (single isomer, unassigned) [Example 68 D1E2] | – | – |
| > 10 | > 10 | CCn1cc(C(c2cc(F)ccc2C#N)C(C)c2nc(C(=O)Nc3cnoc3)c(O)c(=O)n2C)cn1 (single isomer, unassigned) [Example 17 D2E2] | – | – |
| > 10 | > 10 | CC(c1nc(C(=O)Nc2cnoc2)c(O)c(=O)n1C)C(c1cnn(C)c1)c1cc(F)c(F)cc1Cl (single isomer, unassigned) [Example 28 D1E2] | – | – |
| > 10 | > 10 | Cc1ccn(C(c2ccccc2Cl)C(C)c2nc(C(=O)Nc3cnoc3)c(O)c(=O)n2C)n1 (single isomer, unassigned) [Example 49 D1E2] | – | – |
| > 10 | > 10 | CC(c1nc(C(=O)Nc2cnoc2)c(O)c(=O)n1C)C(c1cocn1)c1ccccc1C#N (single isomer, unassigned) [Example 50 D1E2] | – | – |
| > 10 | > 10 | CC(c1nc(C(=O)Nc2cnoc2)c(O)c(=O)n1C)C(c1cnn(C(F)(F)F)c1)c1ccccc1C#N (single isomer, unassigned) [Example 151 D2E2] | – | – |
| > 10 | > 10 | COC(C)(C)Cn1cc(C(c2ccccc2C#N)C(C)c2nc(C(=O)Nc3cnoc3)c(O)c(=O)n2C)cn1 (single isomer, unassigned) [Example 37 D2E1] | – | – |
| > 10 | > 10 | CCn1cc(C(c2ccc(F)cc2C#N)C(C)c2nc(C(=O)Nc3cnoc3)c(O)c(=O)n2C)cn1 (single isomer, unassigned) [Example 16 D1E2] | – | – |
| > 10 | > 10 | CC(c1nc(C(=O)Nc2cnoc2)c(O)c(=O)n1C)C(c1cnn(C)c1)c1ccc(Cl)cc1C#N (single isomer, unassigned) [Example 27 D2E1] | – | – |
| > 10 | > 10 | CC(c1nc(C(=O)Nc2cnoc2)c(O)c(=O)n1C)C(c1cnn(C)c1)c1c(C#N)cccc1C#N (single isomer, unassigned) [Example 19 D2E2] | – | – |
| – | – | Cc1ccnn1C(c1ccccc1Cl)C(C)c1nc(C(=O)Nc2cnoc2)c(O)c(=O)n1C (single isomer, unassigned) [Example 54 D1E2] | > 10 | > 10 |
| > 10 | > 10 | COCCn1cc(C(c2cc(F)ccc2C#N)C(C)c2nc(C(=O)Nc3cnoc3)c(O)c(=O)n2C)cn1 (single isomer, unassigned) [Example 18 D2E2] | – | – |
| > 10 | > 10 | CC(c1nc(C(=O)Nc2cnoc2)c(O)c(=O)n1C)C(c1ccccc1C#N)c1nnnn1C (single isomer, unassigned) [Example 131 D1E2] | – | – |
| > 10 | 1 to 10 | Cc1nn(C)cc1C(c1ccccc1C#N)C(c1nc(C(=O)Nc2cnoc2)c(O)c(=O)n1C)C(F)(F)F (single isomer, unassigned) [Example 41 D2E1] | – | – |
| > 10 | > 10 | CC(c1nc(C(=O)Nc2cnoc2)c(O)c(=O)n1C)C(c1cnn(C)c1)c1cc(F)ccc1C#N (single isomer, unassigned) [Example 14 D2E2] | – | – |
| > 10 | > 10 | Cc1cncc(C(c2ccccc2C#N)C(C)c2nc(C(=O)Nc3cnoc3)c(O)c(=O)n2C)n1 (single isomer, unassigned) [Example 53 D2E2] | – | – |
| > 10 | > 10 | Cc1cnc(C)c(C(c2cc(F)ccc2Cl)C(C)c2nc(C(=O)Nc3cnoc3)c(O)c(=O)n2C)n1 (single isomer, unassigned) [Example 121 D2E2] | – | – |
| > 10 | > 10 | CC(c1nc(C(=O)Nc2cnoc2)c(O)c(=O)n1C)C(c1cnn(C)c1)c1cc(F)c(F)cc1Cl (single isomer, unassigned) [Example 28 D2E1] | – | – |
